# Target: T1, human PTHR1 receptor (Homo sapiens, UniProt Q03431)
# T1 construct: purchased Eurofins HTS030M
# T1 sequence (Q03431 27-593): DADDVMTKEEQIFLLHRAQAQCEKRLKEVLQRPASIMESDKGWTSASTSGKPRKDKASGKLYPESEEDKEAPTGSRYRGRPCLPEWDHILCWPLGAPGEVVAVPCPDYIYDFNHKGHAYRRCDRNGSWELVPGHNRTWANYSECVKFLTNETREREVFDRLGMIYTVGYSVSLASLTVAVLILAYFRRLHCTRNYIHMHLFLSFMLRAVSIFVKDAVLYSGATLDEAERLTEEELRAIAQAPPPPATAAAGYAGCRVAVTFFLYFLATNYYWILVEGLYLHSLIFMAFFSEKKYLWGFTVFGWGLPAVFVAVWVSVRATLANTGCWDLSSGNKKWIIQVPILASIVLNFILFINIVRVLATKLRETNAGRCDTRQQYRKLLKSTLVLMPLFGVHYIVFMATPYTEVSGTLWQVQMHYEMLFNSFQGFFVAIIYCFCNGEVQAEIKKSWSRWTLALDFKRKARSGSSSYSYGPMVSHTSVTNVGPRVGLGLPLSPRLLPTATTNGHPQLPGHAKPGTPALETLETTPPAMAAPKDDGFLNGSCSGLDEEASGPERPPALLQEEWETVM
# Assay: Competitive antagonist binding assay for hPTH-R1 (radioactive competition binding, SPA beads)
# Conditions: human PTHR1 membranes, [125I]-[Nle8,18,Tyr34]-PTH(1-34) 0.2 nM, 90 minutes at room temperature; read-out: hPTHR1 Ki
# Method in brief: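 Human PTHR1 membranes on SPA beads incubated 90 min at room temperature with compound (typically 0-10,000 nM final) and 0.2 nM [125I]-[Nle8,18,Tyr34]-PTH(1-34) in HEPES buffer with MgCl2, CaCl2, BSA, Triton X-100 and protease inhibitors, pH 7.4. Scintillation signal read; Ki values derived.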
row,Ki,Compound
1,< 100 nM,"CC(C)N1C(=O)N(c2c(F)cc(NCCNCCCC(=O)O)cc2F)c2cc(C#N)ccc2-c2cc(Cl)cnc21 [1-93, 4-{[2-({4-[4-chloro-13-cyano-9-oxo-8-(propan-2-yl)-6,8,10-triazatricyclo[9.4.0.0^2,7]pentadeca-1(11),2(7),3,5,12,14-hexaen-10-yl]-3,5-difluorophenyl}amino)ethyl]amino}butanoic acid]"
2,< 100 nM,"CCCN1C(=O)N(c2c(F)cc(NCCNCCO)cc2F)c2cc(C#N)ccc2-c2cc(F)cnc21 [1-118, 10-[2,6-difluoro-4-({2-[(2-hydroxyethyl)amino]ethyl}amino)phenyl]-4-fluoro-9-oxo-8-propyl-6,8,10-triazatricyclo[9.4.0.0^2,7]pentadeca-1(11),2(7),3,5,12,14-hexaene-13-carbonitrile]"
3,< 100 nM,"CCN1C(=O)N(c2c(F)cc(NCCNCCO)cc2F)c2cc(Cl)cc(C)c2-c2cc(F)cnc21 [1-31, 13-chloro-10-[2,6-difluoro-4-({2-[(2-hydroxyethyl)amino]ethyl}amino)phenyl]-8-ethyl-4-fluoro-15-methyl-6,8,10-triazatricyclo[9.4.0.0^2,7]pentadeca-1(11),2(7),3,5,12,14-hexaen-9-one]"
4,100 to 1000 nM,"CCN1C(=O)N(c2c(F)cc(N3CCNCC3)cc2F)c2cc(C#N)ccc2-c2cc(Cl)cnc21 [1-136, 4-chloro-10-[2,6-difluoro-4-(piperazin-1-yl)phenyl]-8-ethyl-9-oxo-6,8,10-triazatricyclo[9.4.0.0^2,7]pentadeca-1(11),2(7),3,5,12,14-hexaene-13-carbonitrile]"
5,< 100 nM,"CCN1C(=O)N(c2c(F)cc(NCCNCCO)cc2F)c2cc(Cl)ccc2-c2cc(F)cnc21 [1-17, 13-chloro-10-[2,6-difluoro-4-({2-[(2-hydroxyethyl)amino]ethyl}amino)phenyl]-8-ethyl-4-fluoro-6,8,10-triazatricyclo[9.4.0.0^2,7]pentadeca-1(11),2(7),3,5,12,14-hexaen-9-one]"
6,< 100 nM,"CCN1C(=O)N(c2c(F)cc(NCCNCC(C)(C)O)cc2F)c2cc(C#N)ccc2-c2cc(Cl)cnc21 [1-138, 4-chloro-10-[2,6-difluoro-4-({2-[(2-hydroxy-2-methylpropyl)amino]ethyl}amino)phenyl]-8-ethyl-9-oxo-6,8,10-triazatricyclo[9.4.0.0^2,7]pentadeca-1(11),2(7),3,5,12,14-hexaene-13-carbonitrile]"
7,< 100 nM,"CCN1C(=O)N(c2c(F)cc(NCCN[C@@H](CO)C(=O)O)cc2F)c2cc(C#N)ccc2-c2cc(Cl)cnc21 [1-210, (2S)-2-({2-[(4-{4-chloro-13-cyano-8-ethyl-9-oxo-6,8,10-triazatricyclo[9.4.0.0^2,7]pentadeca-1(11),2(7),3,5,12,14-hexaen-10-yl}-3,5-difluorophenyl)amino]ethyl}amino)-3-hydroxypropanoic acid]"
8,> 10000 nM,"CCN1C(=O)N(c2c(F)cc(NCCC(=O)O)cc2F)c2cc(Cl)ccc2-c2cc(Cl)cnc21 [1-50, 3-[(4-{4,13-dichloro-8-ethyl-9-oxo-6,8,10-triazatricyclo[9.4.0.0^2,7]pentadeca-1(11),2(7),3,5,12,14-hexaen-10-yl}-3,5-difluorophenyl)amino]propanoic acid]"
9,< 100 nM,"CCN1C(=O)N(c2c(F)cc(N[C@@H](C)CNC)cc2F)c2cc(C#N)ccc2-c2cc(Cl)cnc21 [1-165, 4-chloro-10-(2,6-difluoro-4-{[(2S)-1-(methylamino)propan-2-yl]amino}phenyl)-8-ethyl-9-oxo-6,8,10-triazatricyclo[9.4.0.0^2,7]pentadeca-1(11),2(7),3,5,12,14-hexaene-13-carbonitrile]"
10,< 100 nM,"CCN1C(=O)N(c2c(F)cc(NCCNC)cc2F)c2cc(C#N)ccc2-c2cc(Cl)cnc21 [1-54, 4-chloro-10-(2,6-difluoro-4-{[2-(methylamino)ethyl]amino}phenyl)-8-ethyl-9-oxo-6,8,10-triazatricyclo[9.4.0.0^2,7]pentadeca-1(11),2(7),3,5,12,14-hexaene-13-carbonitrile]"

# From US20230159532A1, “PARATHYROID HORMONE (PTH) RECEPTOR ANTAGONISTS AND USES THEREOF” (Crinetics Pharmaceuticals, Inc., priority 2021, published 2023)
